This is an account of results in patent US5658906A, “Cysteine protease and serine protease inhibitors” (Cephalon, Inc., priority 1996, dated 1997).

In assay [1] the target is T1, Calpain I (Homo sapiens, UniProt P07384).
T1 construct: Calpain I was purified from human red blood cells; from tissue; host or cells: human red blood cells (packed, outdated)
T1 sequence (P07384 1-714): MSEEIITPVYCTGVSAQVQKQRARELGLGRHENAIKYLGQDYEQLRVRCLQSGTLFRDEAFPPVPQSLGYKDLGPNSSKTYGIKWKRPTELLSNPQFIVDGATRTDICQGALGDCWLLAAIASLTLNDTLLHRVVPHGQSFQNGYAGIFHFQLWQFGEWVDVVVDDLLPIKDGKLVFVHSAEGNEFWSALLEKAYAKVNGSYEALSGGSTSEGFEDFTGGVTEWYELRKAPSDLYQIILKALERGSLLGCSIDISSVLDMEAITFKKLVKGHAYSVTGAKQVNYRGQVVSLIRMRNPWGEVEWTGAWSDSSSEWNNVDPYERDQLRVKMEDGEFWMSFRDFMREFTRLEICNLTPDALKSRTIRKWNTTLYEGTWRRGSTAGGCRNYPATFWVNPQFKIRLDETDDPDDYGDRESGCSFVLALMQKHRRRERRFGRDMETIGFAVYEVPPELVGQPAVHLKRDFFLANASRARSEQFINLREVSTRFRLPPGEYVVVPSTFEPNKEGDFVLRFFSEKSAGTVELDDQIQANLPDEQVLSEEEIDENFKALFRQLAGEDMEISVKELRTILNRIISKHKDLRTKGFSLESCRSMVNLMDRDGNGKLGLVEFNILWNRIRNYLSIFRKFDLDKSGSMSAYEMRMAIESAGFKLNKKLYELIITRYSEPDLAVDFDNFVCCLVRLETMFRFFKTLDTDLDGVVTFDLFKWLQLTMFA
T1 sequence (P04632 1-268 partner): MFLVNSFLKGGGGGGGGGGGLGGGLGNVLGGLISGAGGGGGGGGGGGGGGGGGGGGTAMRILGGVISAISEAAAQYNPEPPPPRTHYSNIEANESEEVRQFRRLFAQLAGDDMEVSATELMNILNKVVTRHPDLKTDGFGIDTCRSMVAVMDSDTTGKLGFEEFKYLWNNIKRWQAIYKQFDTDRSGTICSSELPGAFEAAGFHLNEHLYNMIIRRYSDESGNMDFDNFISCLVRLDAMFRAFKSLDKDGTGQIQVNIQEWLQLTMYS
Kind of assay: Inhibition and rate of inactivation of calpain I (Succ-Leu-Tyr-MNA hydrolysis). As to conditions: mean of three or more independent analyses, corrected for substrate, k2 = kapp(1+[S]/Km), read-out: k2 (second order rate constant of inactivation), A = Calpain I. The format is biochemical. The method, then: To evaluate inhibitory activity of our compounds, stocks (40 times concentrated) of each compound to be tested were prepared in 100% anhydrous dimethyl sulfoxide (DMSO) and 5 μl of each inhibitor preparation was aliquoted into each of three wells of a 96 well plate. Calpain I was purified from human red blood cells using a modification of the method described by Lee, W. J. et al. (Biochem. Internatl. (1990)22(1): 163-171). Briefly, 3 units of packed outdated red blood cells were washed 3× by repeated centrifugation at 500 rpm for 10 minutes through 900 mls of 0.9% NaCl. Cells were lysed in 20 mM Tris/1 mM EDTA/1 mM EGTA/5 mM mercaptoethanol (Buffer A) and centrifuged for 1 hour at 12,000 rpm in a GSA rotor using a Sorval centrifuge. The supernatant was collected and applied to a DEAE-sepharose FF column equilibrated in Buffer A+25 mM NaCl. After washing the column in Buffer A+25 mM NaCl, the bound protein was eluted at 117 ml/hr with a 25 mM to 150 mM NaCl linear gradient in Buffer A collecting 200, 10 mL fractions. Two μl of every fifth fraction was applied to nitrocelluose using a dot blot apparatus and calpain containing fractions identified by Western analysis. For detection of calpain, nitrocellulose sheets were first blocked in 5% Blotto (5% Carnation instant milk/10 mM Tris/[…]150 mM NaCl) for 30 minutes, followed by incubation for 1 hour in antibody directed against Calpain I (rabbit anti-human calpain I polyclonal sera, 1:1000 dilution in 5% Blotto). After three 5 minutes washes in 10 mM Tris/150 mM NaCl/0.05% Tween 20 the nitrocellulose was incubated for 1 hour in secondary alkaline phosphatase conjugated antibody (Biorad Cat#170-6518 1:2000 in 5% Blotto). After three 5 minutes washes in 10 mM Tris/150 mM NaCl/0.05% Tween 20 and 1 wash in 10 mM Tris/150 mM NaCl the nitrocellulose was incubated for up to 2 hours in a colorimetric substrate solution (Biorad Alkaline Phosphatase Substrate conjugate kit, cat#170-6432). The reaction was stopped by washing in water. After fractions containing calpain, and those in between, were pooled, solid ammonium sulfate was added to achieve a 30% solution and the mixture stirred for 1 hour at 4° C. Following collection of the precipitate by centrifugation for 1 hour at 4° C. at 12K rpm in a GSA rotor, the supernatant was collected and brought to 45% in ammonium sulfate. After stirring for 1 hour at 4° C., centrifugation was repeated. The supernatant was discarded and the precipitate resuspended in approximately 7 mls and dialyzed overnight at 4° C. against Buffer A+50 mM NaCl. The sample was then applied to a S300 gel filtration column preequilibrated in Buffer A+50 mM NaCl, washed and eluted at a flow rate of 20 ml/hr, collecting 200, 4 ml fractions. The peak of calpain was determined by assaying aliquots of every fifth fraction for enzyme activity monitored by the hydrolysis of a fluorogenic dipeptide substrate as described below. The peak fractions were pooled and the enzyme preparation used to test compounds for inhibitory activity. As an alternate to enzyme isolated from tissue sources, recombinant human calpain I has also been used to monitor compounds for inhibitory activity.
The foregoing enzyme preparation was diluted into assay buffer (i.e., 50 mM Tris, 50 mM NaCl, 1 mM EDTA, 1 mM EGTA, and 5 mM β-mercaptoethanol, pH 7.5 including 0.2 mM Succ-Leu-Tyr-MNA) and 175 μl aliquoted into the same wells containing the independent inhibitor stocks as well as to positive control wells containing 5 μl DMSO, but no compound. To start the reaction, 20 μl of 50 mM CaCl2 in assay buffer was added to all wells of the plate, excepting three, which were used as background signal baseline controls. Substrate hydrolysis was monitored every 5 minutes for a total of 30 minutes using Flouroskan II (ex=340 nm; em=430 nm). Substrate hydrolysis in the absence of inhibitor was linear for up to 15 minutes. […]

In assay [2] the target is T2, Cathepsin B (Homo sapiens, UniProt P07858).
T2 construct: purchased Calbiochem 219364
Kind of assay: Inhibition and rate of inactivation of cathepsin B (Cbz-Phe-Arg-AMC hydrolysis). As to conditions: pH 6.0, 0.1 mM substrate, read-out: k2 (second order rate constant of inactivation), C = Cathepsin B. The format is biochemical. The protocol:
Additionally, the order of reagents added to the plate was altered because both enzymes are constitutively active. Following inhibitor addition to the plates appropriate 2× concentrated stock dilutions of the enzyme preparations were made in assay buffer and 100 ul added to each well. The assay was initiated by addition of 100 ul of 2× concentrated stock dilution of substrate in assay buffer. Substrate hydrolysis was monitored using a Fluroskan II (ex=390 nm; em=460 nm).
Inhibition of enzyme activity was calculated as the percent decrease in the rate of substrate hydrolysis in the presence of inhibitor (.upsilon.i) relative to the rate in its absence (.upsilon.o). Comparison between .upsilon.o and .upsilon.i was made within the linear range for substrate hydrolysis. For screening, compounds were tested at 10 μM. Compounds having ≥50% inhibition at 10 μM were considered active. Apparent second order rate constants were determined from analysis of reaction progress curves under pseudo-first order conditions. Each determination represents the mean of three or more independent single cuvette analyses continually monitored via a Perkin-Elmer LS50B spectrofluorimeter. The rate of inhibition of hydrolysis was obtained by fitting the curve to the exponential equation (1):
y=Ae^-k.spsb.obs·t +B (1)
where y (Pt) is the product formed at time t. A and B are constants. A, the amplitude of the reaction, is given by [Po -P.varies. ] and B (=P.varies.) is the maximal product formed when the reaction is […]. This was corrected for the presence of equation (2): […]

With `Cc1cc2c(cc1Cl)nnn2OCC(=O)[C@H](Cc1ccccc1)NC(=O)[C@H](CC(C)C)NC(=O)OCc1ccccc1` [Example 13, 1-[N-[N-Benzyloxycarbonyl-L-leucyl]-3S-4-phenyl-3-amino-2-oxobutyloxy]-5'-chloro-6'methylbenzotriazole], the kinact/KI in assay [1] turned out to be 116000 M⁻¹ s⁻¹; in assay [2] it was 29000 M⁻¹ s⁻¹. `CC(C)C[C@H](NC(=O)OCc1ccccc1)C(=O)N[C@@H](Cc1ccccc1)C(=O)COn1nnc2c(Cl)cccc21` [Example 14, 1-[N-[N-Benzyloxycarbonyl-L-leucyl]-3S-4-phenyl-3-amino-2-oxybutyloxy]-4'-chlorobenzotriazole]: the kinact/KI in assay [1] came to 157000 M⁻¹ s⁻¹. Take `CC(C)C[C@H](NC(=O)OCc1ccccc1)C(=O)N[C@@H](Cc1ccccc1)C(=O)COn1nnc2ccc(-c3ccccc3)cc21` [Example 15, 1-[N-[N-Benzyloxycarbonyl-L-leucyl]-3S-4-phenyl-3-amino-2-oxybutyloxy]-6'-phenylbenzotriazole]: the kinact/KI in assay [1] turned out to be 77000 M⁻¹ s⁻¹; in assay [2] it was 16000 M⁻¹ s⁻¹. `CC(C)C[C@H](NC(=O)OCc1ccccc1)C(=O)N[C@@H](Cc1ccccc1)C(=O)COn1nnc2cc(Cl)ccc21` [Example 17, 1-[N-[N-Benzyloxycarbonyl-L-leucyl]-3S-4-phenyl-3-amino-2-oxybutyloxy]-5'-chlorobenzotriazole]: in assay [1], the kinact/KI came to 164000 M⁻¹ s⁻¹.

Take `CC(C)C[C@H](NC(=O)OCc1ccccc1)C(=O)N[C@@H](Cc1ccccc1)C(=O)COn1nnc2cc(Cl)c(Cl)cc21` [Example 18, 1-[N-[N-Benzyloxycarbonyl-L-leucyl]-3S-4-phenyl-3-amino-2-oxybutyloxy]-5',6'-dichlorobenzotriazole]: the results for the kinact/KI in assay [1] and in assay [2] were 65000 M⁻¹ s⁻¹ and 115000 M⁻¹ s⁻¹, respectively.

`CC(C)C[C@H](NC(=O)OCc1ccccc1)C(=O)N[C@@H](Cc1ccccc1)C(=O)COn1nnc2c(Cl)c(Cl)c(Cl)c(Cl)c21` [Example 20, 1-[N-[N-Benzyloxycarbonyl-L-leucyl]-3S-4-phenyl-3-amino-2-oxybutyloxy]-4',5'6',7'-tetrachlorobenzotriazole]: the kinact/KI in assay [1] was 1300 M⁻¹ s⁻¹. As to `CC(C)C[C@H](NC(=O)OCc1ccccc1)C(=O)N[C@@H](Cc1ccccc1)C(=O)COn1nnc2c(Cl)cc(Cl)c(Cl)c21` [Example 21, 1-[N-[N-Benzyloxycarbonyl-L-leucyl]-3S-4-phenyl-3-amino-2-oxybutyloxy]-4',6',7'-trichlorobenzotriazole], the kinact/KI in assay [1] was 1800 M⁻¹ s⁻¹; in assay [2], 10000 M⁻¹ s⁻¹. For the compound `CC(C)C[C@H](NC(=O)OCc1ccccc1)C(=O)N[C@@H](Cc1ccccc1)C(=O)COn1nnc2c(Cl)c(Cl)ccc21` [Example 23, 1-[N-[N-Benzyloxycarbonyl-L-leucyl]-3S-4-phenyl-3-amino-2-oxybutyloxy]-4',5'-dichlorobenzotriazole], the kinact/KI in assay [1] was 64000 M⁻¹ s⁻¹. On the same count and under the same terms, for `Cc1ccc2nnn(OCC(=O)[C@H](Cc3ccccc3)NC(=O)[C@H](CC(C)C)NC(=O)OCc3ccccc3)c2c1` [Example 26, 1-[N-[N-Benzyloxycarbonyl-L-leucyl]-3S-4-phenyl-3-amino-2-oxobutyloxy]-6'-methylbenzotriazole] the value was 112000 M⁻¹ s⁻¹. Still for that read-out and setting: under `Cc1ccc2c(c1)nnn2OCC(=O)[C@H](Cc1ccccc1)NC(=O)[C@H](CC(C)C)NC(=O)OCc1ccccc1` [Example 27, 1-[N-[N-Benzyloxycarbonyl-L-leucyl]-3S-4-phenyl-3-amino-2-oxobutyloxy]-5'-methylbenzotriazole] stands 230000 M⁻¹ s⁻¹; under `COc1cc2nnn(OCC(=O)[C@H](Cc3ccccc3)NC(=O)[C@H](CC(C)C)NC(=O)OCc3ccccc3)c(=O)c2cc1OC` [Example 29, 1-[N-[N-Benzyloxycarbonyl-L-leucyl]-3S-4-phenyl-3-amino-2-oxobutyloxy]-3-(6',7'-dimethoxy)benzotriazin-4-one], 171000 M⁻¹ s⁻¹; under `CC(C)C[C@H](NC(=O)OCc1ccccc1)C(=O)N[C@@H](Cc1ccccc1)C(=O)COn1nnc2ccc(Cl)cc2c1=O` [Example 30, 1-[N-[N-Benzyloxycarbonyl-L-leucyl]-3S-4-phenyl-3-amino-2-oxobutyloxy]-3-(6'-chloro)benzotriazin-4-one], 180000 M⁻¹ s⁻¹. On the same count and under the same terms, for `CC(C)C[C@H](NC(=O)[C@H](CC(C)C)NC(=O)OCc1ccccc1)C(=O)COn1nnc2ccccc2c1=O` [Example 31, 1-[N-[N-Benzyloxycarbonyl-L-leucyl]-3S-5-methyl-3-amino-2-oxohexyloxy]-3-benzotriazin-4-one] the value was 46000 M⁻¹ s⁻¹; for `CC[C@H](C(=O)C[C@@H](CC(C)C)C(=O)N[C@@H](Cc1ccccc1)C(=O)COn1nnc2ccccc21)c1ccccc1` [Example 46, 1-[N-[2R-(2-methylpropyl)-1,4-dioxo-5S-phenylheptan-1-yl]-3S-3-amino-2-oxo-4-phenylbutyloxy]benzotriazole], 3000 M⁻¹ s⁻¹.
